Measurements reported in US12486278B2, “MASP-2 inhibitors and methods of use” (Omeros Corporation, priority 2019, dated 2025).
pKi: −log10 of the molar value. Where a name gives a salt, the structure may show the parent alone.

What follows are molecules tested against T1, MASP-2 (CCP1-CCP2-SP) (Homo sapiens, UniProt O00187) (assay: Enzymatic Assay for MASP-2 (fluorogenic substrate)). Conditions: fluorogenic substrate based on C2 cleavage site; room temperature, 20 min; 20 mM HEPES pH 7.4, 140 mM NaCl, 0.1% Tween 20.
T1 construct: 15 μL of Enzyme MASP-2 (CCP1-CCP2-SP) in Assay Buffer
T1 sequence (O00187 445-686 limits assumed): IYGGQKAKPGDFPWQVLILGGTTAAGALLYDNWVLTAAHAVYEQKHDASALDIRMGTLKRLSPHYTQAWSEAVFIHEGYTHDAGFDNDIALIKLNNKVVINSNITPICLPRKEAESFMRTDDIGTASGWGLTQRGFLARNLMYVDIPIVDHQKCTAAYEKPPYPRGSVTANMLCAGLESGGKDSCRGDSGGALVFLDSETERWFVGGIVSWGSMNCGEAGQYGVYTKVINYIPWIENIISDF
T1 sequence (O00187 298-444 partner limits assumed): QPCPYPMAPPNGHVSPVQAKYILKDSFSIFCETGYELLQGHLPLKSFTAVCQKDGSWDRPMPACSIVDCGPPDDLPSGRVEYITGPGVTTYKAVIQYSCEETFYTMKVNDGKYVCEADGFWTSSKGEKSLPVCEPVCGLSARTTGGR
Type: biochemical
How it was run: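 Fluorogenic substrate built on the C2 cleavage site, in 20 mM HEPES pH 7.4, 140 mM NaCl, 0.1% Tween 20, run at room temperature for 20 min before an acetic acid stop. Fluorescence normalised to DMSO-only and no-enzyme controls; IC50 taken as equivalent to Ki, with tight- or slow-binding inhibitors treated separately.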
`C[C@H](NC(=O)[C@H]1C[C@H](Oc2ccccc2)CN1)C(=O)NCc1ccc(C(=N)N)cc1` [Compound I-96, (2R,4S)—N—((S)-1-((4-Carbamimidoylbenzyl)amino)-1-oxopropan-2-yl)-4-phenoxypyrrolidine-2-carboxamide di-trifluoroacetate] showed a pKi of over 6.30.
Molecule `C[C@H](NC(=O)[C@H]1C[C@@H](c2cccc(-c3ccccc3)c2)CCN1)C(=O)NCc1ccc(C(=N)N)cc1` [Compound I-68, (2R,4S)-4-([1,1′-Biphenyl]-3-Yl)-N—((S)-1-((4-Carbamimidoylbenzyl)Amino)-1-Oxopropan-2-Yl)Piperidine-2-Carboxamide Di-Trifluoroacetate] has a pKi of over 6.30.
Work on `C[C@H](NC(=O)[C@H]1C[C@@H](c2ccccc2)CCN1)C(=O)NCc1cc2c(s1)CNC2` [Compound I-98, (2R,4S)—N—((S)-1-(((5,6-Dihydro-4H-Thieno[2,3-C]Pyrrol-2-Yl)Methyl)Amino)-1-Oxopropan-2-Yl)-4-Phenylpiperidine-2-Carboxamide Di-Trifluoroacetate Salt] yielded a pKi of over 6.30.
Molecule `C[C@H](NC(=O)[C@H]1C[C@H](Cc2ccc(F)cc2)CN1CCC(=O)O)C(=O)NCc1ccc(C(=N)N)cc1` [Compound I-37, 3-((2R,4S)-2-(((S)-1-((4-Carbamimidoylbenzyl)Amino)-1-Oxopropan-2-Yl)Carbamoyl)-4-(4-Fluorobenzyl)Pyrrolidin-1-Yl)Propanoic Acid Di-Trifluoroacetate] has a pKi of over 6.30.
With `C[C@H](NC(=O)[C@H]1C[C@@H](c2ccccc2)CCN1CCC(=O)O)C(=O)NCc1ccc(C(=N)N)cc1` [Compound I-32, 3-((2R,4S)-2-(((S)-1-((4-Carbamimidoylbenzyl)Amino)-1-Oxopropan-2-Yl)Carbamoyl)-4-Phenylpiperidin-1-Yl)Propanoic Acid Di-Trifluoroacetate] the pKi was over 6.30.
Molecule `Cc1nc(N)ccc1CNC(=O)[C@H](C)NC(=O)[C@H]1C[C@H](Cc2ccc3c(C)cccc3c2)CN1` [Compound I-85, (2R,4S)—N—((S)-1-(((6-Amino-2-Methylpyridin-3-Yl)Methyl)Amino)-1-Oxopropan-2-Yl)-4-((5-Methylnaphthalen-2-Yl)Methyl)Pyrrolidine-2-Carboxamide Dihydrochloride] has a pKi of over 6.30.
With `C[C@H](NC(=O)[C@H]1C[C@H](Cc2cccc(C(=O)O)c2)CN1)C(=O)NCc1ccc(C(=N)N)cc1` [Compound I-55, 3-(((3S,5R)-5-(((S)-1-((4-Carbamimidoylbenzyl)Amino)-1-Oxopropan-2-Yl)Carbamoyl)Pyrrolidin-3-Yl)Methyl)Benzoic Acid Di-Trifluoroacetate] the pKi was over 6.30.
Molecule `Cc1nc(N)ccc1CNC(=O)[C@H](C)NC(=O)[C@H]1C[C@H](Cc2ccc(C(=O)O)cc2)CN1` [Compound I-51, 4-(((3S,5R)-5-(((S)-1-(((6-Amino-2-Methylpyridin-3-Yl)Methyl)Amino)-1-Oxopropan-2-Yl)Carbamoyl)Pyrrolidin-3-Yl)Methyl)Benzoic Acid Di-Trifluoroacetate] has a pKi of over 6.30.
For `N=C(N)c1ccc(CNC(=O)[C@@H]2CCN2C(=O)[C@H]2C[C@@H](c3ccccc3)CCN2)cc1` [Compound I-66, (S)—N-(4-Carbamimidoylbenzyl)-1-((2R,4S)-4-Phenylpiperidine-2-Carbonyl)Azetidine-2-Carboxamide Trifluoroacetate], the pKi was over 6.30.
`C[C@H](NC(=O)[C@H]1C[C@H](Cc2ccc(F)c(Cl)c2)CN1)C(=O)NCc1cnc2[nH]cc(Cl)c2c1` [Compound I-25, (2R,4S)—N—((S)-1-(((3-Chloro-1H-Pyrrolo[2,3-B]Pyridin-5-Yl)Methyl)Amino)-1-Oxopropan-2-Yl)-4-(3-Chloro-4-Fluorobenzyl)Pyrrolidine-2-Carboxamide Trifluoroacetate] showed a pKi of over 6.30.
`C[C@H](NC(=O)[C@H]1C[C@H](Cc2ccc(F)c(Cl)c2)CN1)C(=O)NCc1cc2cnccc2[nH]1` [Compound I-2, (2R,4S)—N—((S)-1-(((1H-Pyrrolo[3,2-C]Pyridin-2-Yl)Methyl)Amino)-1-Oxopropan-2-Yl)-4-(3-Chloro-4-Fluorobenzyl)Pyrrolidine-2-Carboxamide Di-Trifluoroacetate] showed a pKi of over 6.30.
`Cc1nc(N)ccc1CNC(=O)[C@H]1CC(F)(F)CN1C(=O)[C@@H]1C[C@@H](Cc2ccc(Br)cc2)CN1` [Compound I-61, (R)—N-((6-Amino-2-Methylpyridin-3-Yl)Methyl)-1-((2S,4R)-4-(4-Bromobenzyl)Pyrrolidine-2-Carbonyl)-4,4-Difluoropyrrolidine-2-Carboxamide Dihydrochloride] gave a pKi of over 6.30.
Work on `Cc1nc(N)ccc1CNC(=O)[C@H](C)NC(=O)[C@H]1C[C@H](Cc2cc(Cl)cs2)CN1` [Compound I-87, (2R,4R)—N—((S)-1-(((6-Amino-2-Methylpyridin-3-Yl)Methyl)Amino)-1-Oxopropan-2-Yl)-4-((4-Chlorothiophen-2-Yl)Methyl)Pyrrolidine-2-Carboxamide Dihydrochloride] yielded a pKi of over 6.30.
`Cc1nc(N)ccc1CNC(=O)[C@H](C)NC(=O)[C@H]1C[C@H](Cc2ccc(F)c(Cl)c2)CN1CC(=O)O` [Compound I-33, 2-((2R,4S)-2-(((S)-1-(((6-Amino-2-Methylpyridin-3-Yl)Methyl)Amino)-1-Oxopropan-2-Yl)Carbamoyl)-4-(3-Chloro-4-Fluorobenzyl)Pyrrolidin-1-Yl)Acetic Acid Di-Trifluoroacetate] gave a pKi of over 6.30.
`C[C@H](NC(=O)[C@H]1C[C@@H](c2ccccc2)CCN1CCNS(C)(=O)=O)C(=O)NCc1cc2cnccc2[nH]1` [Compound I-42, (2R,4S)—N—((S)-1-(((1H-Pyrrolo[3,2-C]Pyridin-2-Yl)Methyl)Amino)-1-Oxopropan-2-Yl)-1-(2-(Methylsulfonamido)Ethyl)-4-Phenylpiperidine-2-Carboxamide Di-Trifluoroacetate] showed a pKi of over 6.30.
With `C[C@H](NC(=O)[C@H]1C[C@H](c2ccccc2)CN1)C(=O)NCc1cc2ccncc2[nH]1` [Compound I-3, (2R,4R)—N—((S)-1-(((1H-pyrrolo[2,3-c]pyridin-2-yl)methyl)amino)-1-oxopropan-2-yl)-4-phenylpyrrolidine-2-carboxamide di-trifluoroacetate] the pKi was 5.00 to 5.60.
Work on `CC(NC(=O)[C@H]1C[C@@H](c2ccccc2)CCN1CC(=O)O)C(=O)NCc1cc2cnccc2[nH]1` (stereo in doubt) [Compound I-104, 2-((2R,4S)-2-(((R)-1-(((1H-pyrrolo[3,2-c]pyridin-2-yl)methyl)amino)-1-oxopropan-2-yl)carbamoyl)-4-phenylpiperidin-1-yl)acetic acid di-trifluoroacetate] yielded a pKi of over 6.30.
`Cc1nc(N)ccc1CNC(=O)[C@@H]1CCN1C(=O)[C@H]1C[C@H](c2cccc(-c3ccccc3)c2)CN1` [Compound I-64, (S)-1-((2R,4R)-4-([1,1′-Biphenyl]-3-Yl)Pyrrolidine-2-Carbonyl)-N-((6-Amino-2-Methylpyridin-3-Yl)Methyl)Azetidine-2-Carboxamide Di-Trifluoroacetate] was tested, and the pKi was over 6.30.
Work on `C[C@H](NC(=O)[C@H]1C[C@H](Cc2ccccc2)CN1)C(=O)NCc1ccc2c(c1)ncn2C` [Compound I-30, (2R,4S)-4-Benzyl-N—((S)-1-(((1-Methyl-1H-Benzo[D]Imidazol-5-Yl)Methyl)Amino)-1-Oxopropan-2-Yl)Pyrrolidine-2-Carboxamide Trifluoroacetate] yielded a pKi of 5.00 to 5.60.
In the case of `C[C@H](NC(=O)[C@H]1C[C@H](c2ccccc2)CN1)C(=O)NCc1nc2c(Cl)cccc2s1` [Compound I-4, (2R,4R)—N—((S)-1-(((4-Chlorobenzo[D]Thiazol-2-Yl)Methyl)Amino)-1-Oxopropan-2-Yl)-4-Phenylpyrrolidine-2-Carboxamide Trifluoroacetate], the pKi was 5.60 to 6.30.
With `O=C(NCc1cc(Cl)ccc1-n1cnnn1)[C@@H]1CCN1C(=O)[C@H]1C[C@@H](c2ccc(-c3ccccc3)cc2)CCN1` [Compound I-103, (S)-1-((2R,4S)-4-([1,1′-Biphenyl]-4-yl)piperidine-2-carbonyl)-N-(5-chloro-2-(1H-tetrazol-1-yl)benzyl)azetidine-2-carboxamide trifluoroacetate] the pKi was over 6.30.
`COC(=O)c1cccc(C[C@@H]2CN[C@@H](C(=O)N[C@@H](C)C(=O)NCc3ccc(C(=N)N)cc3)C2)c1` [Compound I-54, Methyl 3-(((3S,5R)-5-(((S)-1-((4-Carbamimidoylbenzyl)Amino)-1-Oxopropan-2-Yl)Carbamoyl)Pyrrolidin-3-Yl)Methyl)Benzoate Di-Trifluoroacetate] gave a pKi of over 6.30.
Molecule `C[C@H](NC(=O)[C@H]1C[C@H](Cc2cc(Br)c(Cl)s2)CN1)C(=O)NCc1cnc2c(c1)c(Cl)cn2C` [Compound I-19, (2R,4R)-4-((4-Bromo-5-Chlorothiophen-2-Yl)Methyl)-N—((S)-1-(((3-Chloro-1-Methyl-1H-Pyrrolo[2,3-B]Pyridin-5-Yl)Methyl)Amino)-1-Oxopropan-2-Yl)Pyrrolidine-2-Carboxamide Trifluoroacetate] has a pKi of over 6.30.
In the case of `C[C@H](NC(=O)[C@H]1C[C@@H](c2ccccc2)CCN1CCC(=O)O)C(=O)NCc1cc2cnccc2[nH]1` [Compound I-107, 3-((2R,4S)-2-(((S)-1-(((1H-pyrrolo[3,2-c]pyridin-2-yl)methyl)amino)-1-oxopropan-2-yl)carbamoyl)-4-phenylpiperidin-1-yl)propanoic acid di-trifluoroacetate salt], the pKi was over 6.30.
`COC(=O)c1cccc(C[C@@H]2CN[C@@H](C(=O)N[C@@H](C)C(=O)NCc3ccc(N)nc3C)C2)c1` [Compound I-47, Methyl 3-(((3S,5R)-5-(((S)-1-(((6-Amino-2-Methylpyridin-3-Yl)Methyl)Amino)-1-Oxopropan-2-Yl)Carbamoyl)Pyrrolidin-3-Yl)Methyl)Benzoate Dihydrochloride] gave a pKi of over 6.30.
With `C[C@H](NC(=O)[C@H]1C[C@@H](c2cccc(-n3cccn3)c2)CCN1)C(=O)NCc1ccc(C(=N)N)cc1` [Compound I-77, (2R,4S)-4-(3-(1H-Pyrazol-1-Yl)Phenyl)-N—((S)-1-((4-Carbamimidoylbenzyl)Amino)-1-Oxopropan-2-Yl)Piperidine-2-Carboxamide Dihydrochloride] the pKi was over 6.30.
